Assay: Stability test of amidite: 0.1 M solution in acetonitrile stored in the dark at room temperature, analysed by UHPLC
Assay type: physicochemical
Conditions: 0.1 M in acetonitrile
Method: • Device used: ACQUITY Arc UHPLC system manufactured by Waters Corporation • Column: Xbridge BEH C18, 2.5 μm, 3.0×100 mm, Column XP manufactured by Waters Corporation • Mobile phase: Gradient
• Flow rate: 0.85 mL/min • Detection: PDA (200 to 400 nm) • Column temperature: 30° C. • Analysis time: 10.00 min
The amidite a3 (purity was 96.3%) obtained in Example 1, and an amidite a3′ (purity was 90.9%) synthesized according to the method described in Patent Document 5 were each dissolved in acetonitrile to prepare a 0.1 M solution.
Of the two 0.1 M solutions obtained, the solution containing the amidite a3 of Example 1 was stored in the dark at room temperature for 7 days. On the other hand, the solution containing the amidite a3′ of Patent Document 5 was stored in the dark at room temperature for 17 hours.
The UHPLC results of the amidites a3 and a3′ contained respectively in the stored solutions are shown in Tables 7 and 8, and the UHPLC-MS results of the amidites a3 and a3′ contained respectively in the stored solutions are shown in FIGS. 12 and 13.

| SMILES | % Area of main UHPLC peak after storage (stored for 7 days, retention time 7.335 min, purity before storage 96.3%) | Stability in stored solution, compared by UHPLC peaks (a3 stored 7 days versus a3′ stored 17 hours) | % Area of main UHPLC peak after storage (stored for 17 hours, retention time 5.866 min, purity before storage 90.9%) |
| --- | --- | --- | --- |
| COc1ccc(C(OC[C@]23CN(/C(=N/C(=O)OCC4c5cc(C(C)(C)C)ccc5-c5ccc(C(C)(C)C)cc54)NC(C)(C)C)C(C2OP(OCCC#N)N(C(C)C)C(C)C)[C@H](n2cc(C)c(=O)[nH]c2=O)O3)(c2ccccc2)c2ccc(OC)cc2)cc1 (stereo partly drawn) [amidite a3, di-tBu-Fmoc-GuNA[t-Bu]-T amidite] | 95.21% | more stable |  |
| COc1ccc(C(OC[C@@]23CN(/C(=N/C(=O)OCC4c5ccccc5-c5ccccc54)NC(C)(C)C)C([C@H](n4cc(C)c(=O)[nH]c4=O)O2)[C@H]3OP(OCCC#N)N(C(C)C)C(C)C)(c2ccccc2)c2ccc(OC)cc2)cc1 (stereo partly drawn) [amidite a3′, reference compound] |  |  | 76.00% |

From patent US20260167662A1, “MODIFIED […] GUANIDINO STRUCTURE IN BRIDGED PART AND METHOD FOR PRODUCING OLIGO[…] SAME” (LUXNA BIOTECH CO., LTD., priority 2022, published 2026)
